Assay results from patent US20040253665A1, “Novel peptide-producing enzyme, microbe producing the enzyme and method for dipeptide synthesis using them” (AJINOMOTO CO., INC., priority 2002, published 2004).
Read-outs that look alike come from different tables or passages of the source. Values belong to the molecule of their own block, whether it stands above or below them. Residues, ends and D or L forms follow the SMILES beside them.

Assays:
[1] = test system: peptide-producing enzyme (Mono S fraction) from Empedobacter brevis strain FERM BP-8113; assay: Enzyme substrate specificity (1)-(10), (13), (14); type: biochemical; conditions: pH 9.0, 25° C., 3 hours
From the text: Ester specificity was examined in the case of using L-amino acid ester for the carboxy component. […] The amounts of L-Ala-L-Gln produced in this reaction are shown in Table 4 (HCl represents hydrochloride in Table 4). Peptide production was examined in the case of using L-alanine methyl ester for the carboxy component and using various L-amino acids for the amine component. […] (The “+” mark indicates those peptides for which production was confirmed but which were unable to be quantified due to the absence of a standard, while “tr” indicates a trace amount.) Peptide production was examined in the case of using various types of L-amino acid methyl esters for the carboxy component and using L-glutamine for the amine component. […] Peptide production was examined in the case of using various L-amino acid methyl esters for the carboxy component and various L-amino acids for the amine component. […] (The “tr” indicates a trace amount.) Furthermore, Tween-80 was added to the reaction system to a final concentration of 0.1% in the case of using L-Trp-OMe. (The “+” mark indicates those peptides for which production was confirmed but which were unable to be quantified due to the absence of a standard.) […] (The “tr” indicates a trace amount.) Peptide production was examined using various L-amino acid amides for the carboxy component, and various L-amino acids for the amine component. […] Peptide production was examined in the case of using various L-alanine methyl esters for the carboxy component and C-protected L-amino acids for the amine component. […] Peptide production was examined in the case of using various amino acid methyl esters for the carboxy component and methylamine for the amine component. […] Peptide production was examined in the case of using β-amino acid ester for the carboxy component or β-amino acid for the amine component. […] (The “tr” indicates a trace amount.) Oligopeptide production was examined in the case of using L-amino acid ester for the carboxy component and peptide for the amine component. […] Substrate specificity was additionally assessed using the same enzyme fraction as that used in Example 5. […] (A “+” mark indicates those for which production was confirmed but which were unable to be quantified due to the absence of a standard, while “tr” indicates a trace amount). Substrate specificity with respect to oligopeptide production was assessed using the same enzyme fraction as Example 26. […] (A “+” mark indicates those for which production was confirmed but which were unable to be quantified due to the absence of a standard, while “tr” indicates a trace amount). It should be noted that hydrochlorides were used for all of the carboxy components.

[2] = test system: enzyme (SP-Sepharose HP fraction) derived from Sphingobacterium sp. strain FERM BP-8124; type: biochemical; set-up: key to Produced peptide (mM): +: those peptides for which production was confirmed but which were unable to be quantified due to the absence of a standard; a trace amount; conditions: 0.33 units enzyme, pH 9.0, 25° C., 1.5 hours
Method: Substrate specificity was examined for enzyme derived from Sphingobacterium sp. strain FERM BP-8124 (Depositary institution: National Institute for Advanced Industrial Science and Technology, International Patent Organism Depositary, Address of depositary institution: Central. 6, 1-1-1 Higashi, Tsukuba City, Ibaraki Prefecture, Japan, International deposit date: Jul. 22, 2002). 100 μl of 100 mM borate buffer (pH 9.0) containing the various carboxy components at a final concentration of 100 mM and the various amine components at a final concentration of 150 mM shown in Tables 15-1 to 15-4, the SP-Sepharose HP fraction enzyme purified in Example 22 (addition of 0.33 units in the reaction liquid) and 10 mM EDTA were allowed to react at 25° C. for 1.5 hours. […] In addition, hydrochlorides were used for all carboxy components.
Substrate specificity with respect to oligopeptide production was examined for enzyme derived from Sphingobacterium sp. strain FERM BP-8124 (Depositary institution: National Institute for Advanced Industrial Science and Technology,.International Patent Organism Depositary, Address of depositary institution: Chuo Dai-6, 1-1 Higashi 1-Chome, Tsukuba-shi, Ibaraki-ken, Japan, International deposit date: Jul. 22, 2002). A 100 μl aliquot of 100 mM borate buffer (pH 9.0) containing the various carboxy components at a final concentration of 100 mM and the various amine components at a final concentration of 150 mM shown in Table 16, the SP-Sepharose HP fraction enzyme purified in Example 22 (addition of 0.33 units in the reaction liquid) and 10 mM EDTA were allowed to react for 1.5 hours at 25° C. Furthermore, hydrochloride salts were used for all carboxy components.

[3] = Table 15-4, amides or methylamine as components, 100 mM / 150 mM
[4] = 100 mM L-alanine methyl ester hydrochloride, L-amino acid 150 mM
[5] = Table 15-1, carboxy component 100 mM, amine component 150 mM
[6] = L-amino acid methyl ester hydrochloride 100 mM, 150 mM L-glutamine
[7] = Table 15-2, carboxy component 100 mM, L-Gln 150 mM
[8] = L-amino acid methyl ester hydrochloride 100 mM, L-amino acid 150 mM
[9] = Table 15-3, carboxy component 100 mM, amine component 150 mM

Structure (SMILES): C[C@H](N)C(=O)N[C@H](C(=O)O)[C@@H](C)O [L-Ala-L-Thr] (H-Ala-Thr-OH)
- Produced peptide [1, 4]: 53.9 mM
- Produced peptide [2, 5]: 47.3 mM

Structure (SMILES): C[C@H](N)C(=O)N[C@@H](Cc1c[nH]c2ccccc12)C(=O)O [L-Ala-L-Trp] (H-Ala-Trp-OH)
- Produced peptide [1, 4]: 53.9 mM
- Produced peptide [2, 5]: 46.0 mM

Structure (SMILES): CNC(=O)C(C)N [L-Ala-methylamine]
- Produced peptide ([1]; amino acid methyl ester 100 mM, methylamine 150 mM): 0.3 mM
- Produced peptide [2, 3]: 0.6 mM

Structure (SMILES): NC(=O)CC[C@H](NC(=O)[C@@H](N)CCCN=C(N)N)C(=O)O [L-Arg-L-Gln] (H-Arg-Gln-OH)
- Produced peptide [1, 6]: 7.1 mM
- Produced peptide [2, 7]: 17.2 mM

Structure (SMILES): CSCC[C@H](NC(=O)[C@@H](N)CCCN=C(N)N)C(=O)O [L-Arg-L-Met] (H-Arg-Met-OH)
- Produced peptide [1, 8]: 0.7 mM
- Produced peptide (mM) [2, 9]: tr

Structure (SMILES): NC(=O)CC[C@H](NC(=O)[C@@H](N)CCC(N)=O)C(=O)O [L-Gln-L-Gln] (H-Gln-Gln-OH)
- Produced peptide [1, 6]: 0.3 mM
- Produced peptide [2, 7]: 0.1 mM

Structure (SMILES): CC[C@H](C)[C@H](N)C(=O)N[C@@H](CCC(N)=O)C(=O)O [L-Ile-L-Gln] (H-Ile-Gln-OH)
- Produced peptide [1, 6]: 8.4 mM
- Produced peptide [2, 7]: 6.4 mM

Structure (SMILES): CC[C@H](C)[C@H](N)C(=O)N[C@@H](Cc1ccccc1)C(=O)O [L-Ile-L-Phe] (H-Ile-Phe-OH)
- Produced peptide [1, 8]: 5.2 mM
- Produced peptide [2, 9]: 1.5 mM

Structure (SMILES): NC(=O)CC[C@H](NC(=O)[C@@H](N)Cc1ccccc1)C(=O)O [L-Phe-L-Gln]
- Produced peptide ([1]; L-amino acid amide hydrochloride 100 mM as carboxy component, L-amino acid 150 mM): 0.2 mM
- Produced peptide [1, 6]: 0.9 mM
- Produced peptide [2, 7]: 0.8 mM

Further lines, results first:

- Produced peptide ([1]; L-Ala-OMe 100 mM, L-amino acid amide 150 mM as amine component): 12.2 mM
- Produced peptide [2, 3]: 27.1 mM
Structure (SMILES): C[C@H](N)C(=O)N[C@@H](Cc1ccccc1)C(N)=O [L-Ala-L-Phe-NH2]

- Produced peptide [1, 4]: 17.6 mM
- Produced peptide [2, 5]: 11.1 mM
Structure (SMILES): C[C@H](N)C(=O)N[C@@H](Cc1ccc(O)cc1)C(=O)O [L-Ala-L-Tyr] (H-Ala-Tyr-OH)

- Produced peptide [1, 4]: 20.8 mM
- Produced peptide [2, 5]: 10.9 mM
Structure (SMILES): CC(C)[C@H](NC(=O)[C@H](C)N)C(=O)O [L-Ala-L-Val] (H-Ala-Val-OH)

- Produced peptide [1, 8]: 1.9 mM
- Produced peptide (mM) [2, 9]: tr
Structure (SMILES): NC(N)=NCCC[C@H](N)C(=O)N[C@@H](Cc1ccccc1)C(=O)O [L-Arg-L-Phe]

- Produced peptide [1, 8]: 3.6 mM
- Produced peptide [2, 9]: 2.2 mM
Structure (SMILES): NC(N)=NCCC[C@H](N)C(=O)N[C@@H](CO)C(=O)O [L-Arg-L-Ser] (H-Arg-Ser-OH)

- Produced peptide [1, 8]: 17.2 mM
- Produced peptide [2, 9]: 17.3 mM
Structure (SMILES): CC[C@H](C)[C@H](N)C(=O)N[C@@H](CO)C(=O)O [L-Ile-L-Ser] (H-Ile-Ser-OH)

- Produced peptide [1, 6]: 12.0 mM
- Produced peptide [2, 7]: 32.6 mM
Structure (SMILES): CSCC[C@H](N)C(=O)N[C@@H](CCC(N)=O)C(=O)O [L-Met-L-Gln] (H-Met-Gln-OH)

- Produced peptide [1, 8]: 25.0 mM
- Produced peptide [2, 9]: 28.4 mM
Structure (SMILES): CSCC[C@H](NC(=O)[C@@H](N)CCSC)C(=O)O [L-Met-L-Met] (H-Met-Met-OH)

- Produced peptide [1, 8]: 12.8 mM
- Produced peptide [2, 9]: 25.3 mM
Structure (SMILES): CSCC[C@H](N)C(=O)N[C@@H](CO)C(=O)O [L-Met-L-Ser] (H-Met-Ser-OH)

- Produced peptide [1, 6]: 2.2 mM
- Produced peptide [2, 7]: 1.8 mM
Structure (SMILES): NC(=O)CC[C@H](NC(=O)[C@@H]1CCCN1)C(=O)O [L-Pro-L-Gln] (H-Pro-Gln-OH)
